In patent publication US20210045385A1, “PYRIDAZINONE-SUBSTITUTED KETOXIMES AS HERBICIDES” (FMC Corporation, priority 2018, published 2021):

How the values were obtained:
Type in all cases: in vivo
[1] = tested on: foxtail, giant (giant foxtail, Setaria faberii); assay: Test A postemergence, visual plant response rating; conditions: for Foxtail, Giant plant response rating (0 to 100 scale): 500 g ai/ha, postemergence, 0 is no effect, 100 is complete control; for Foxtail, Giant plant response rating: Postemergence, 125 g ai/ha, 0 to 100 scale (0 no effect, 100 complete control)
Description: (§1) Seeds of plant species selected from barnyardgrass (Echinochloa crus-galli), kochia (Kochia scoparia), ragweed (common ragweed, Ambrosia elatior), Italian ryegrass (Lolium multiflorum), foxtail, giant (giant foxtail, Setaria faberii), foxtail, green (green foxtail, Setaria viridis), and pigweed (Amaranthus retroflexus) were planted into a blend of loam soil and sand and treated preemergence with a directed soil spray using test chemicals formulated in a non-phytotoxic solvent mixture which included a surfactant.
(§2) At the same time, plants selected from these weed species and also wheat (Triticum aestivum), corn (Zea mays), blackgrass (Alopecurus myosuroides), and galium (catchweed bedstraw, Galium aparine) were planted in pots containing the same blend of loam soil and sand and treated with postemergence applications of test chemicals formulated in the same manner. Plants ranged in height from 2 to 10 cm and were in the one- to two-leaf stage for the postemergence treatment. Treated plants and untreated controls were maintained in a greenhouse for approximately 10 days, after which time all treated plants were compared to untreated controls and visually evaluated for injury. Plant response ratings, summarized in Table A, are based on a 0 to 100 scale where 0 is no effect and 100 is complete control. A dash (-) response means no test result.

[2] = tested on: barnyardgrass (Echinochloa crus-galli); assay: Test A postemergence, visual plant response rating; conditions: for Barnyardgrass plant response rating (0 to 100 scale): 500 g ai/ha, postemergence, 0 is no effect, 100 is complete control; for Barnyardgrass plant response rating: Postemergence, 125 g ai/ha, 0 to 100 scale (0 no effect, 100 complete control)
Description: as §1, §2

corn (Zea mays) = assay: Test A postemergence, visual plant response rating; conditions: for Corn plant response rating (0 to 100 scale): 500 g ai/ha, postemergence, 0 is no effect, 100 is complete control; for Corn plant response rating: Postemergence, 125 g ai/ha, 0 to 100 scale (0 no effect, 100 complete control)
Description: as §1, §2

[3] = tested on: wheat (Triticum aestivum); assay: Test A postemergence, visual plant response rating; conditions: for Wheat plant response rating (0 to 100 scale): 500 g ai/ha, postemergence, 0 is no effect, 100 is complete control; for Wheat plant response rating: Postemergence, 125 g ai/ha, 0 to 100 scale (0 no effect, 100 complete control)
Description: as §1, §2

[4] = tested on: pigweed (Amaranthus retroflexus); assay: Test A postemergence, visual plant response rating; conditions: for Pigweed plant response rating (0 to 100 scale): 500 g ai/ha, postemergence, 0 is no effect, 100 is complete control; for Pigweed plant response rating: Postemergence, 125 g ai/ha, 0 to 100 scale (0 no effect, 100 complete control)
Description: as §1, §2

[5] = tested on: blackgrass (Alopecurus myosuroides); assay: Test A postemergence, visual plant response rating; conditions: for Blackgrass plant response rating (0 to 100 scale): 500 g ai/ha, postemergence, 0 is no effect, 100 is complete control; for Blackgrass plant response rating: Postemergence, 125 g ai/ha, 0 to 100 scale (0 no effect, 100 complete control)
Description: as §1, §2

[6] = tested on: Italian ryegrass (Lolium multiflorum); assay: Test A postemergence, visual plant response rating; conditions: for Ryegrass, Italian plant response rating (0 to 100 scale): 500 g ai/ha, postemergence, 0 is no effect, 100 is complete control; for Ryegrass, Italian plant response rating: Postemergence, 125 g ai/ha, 0 to 100 scale (0 no effect, 100 complete control)
Description: as §1, §2

kochia (Kochia scoparia) [7] = assay: Test A postemergence, visual plant response rating; conditions: for Kochia plant response rating (0 to 100 scale): 500 g ai/ha, postemergence, 0 is no effect, 100 is complete control; for Kochia plant response rating: Postemergence, 125 g ai/ha, 0 to 100 scale (0 no effect, 100 complete control)
Description: as §1, §2

[8] = tested on: galium (catchweed bedstraw, Galium aparine); assay: Test A postemergence, visual plant response rating; conditions: for Galium plant response rating (0 to 100 scale): 500 g ai/ha, postemergence, 0 is no effect, 100 is complete control; for Galium plant response rating: Postemergence, 125 g ai/ha, 0 to 100 scale (0 no effect, 100 complete control)
Description: as §1, §2

[9] = tested on: ragweed (common ragweed, Ambrosia elatior); assay: Test A postemergence, visual plant response rating; conditions: for Ragweed plant response rating (0 to 100 scale): 500 g ai/ha, postemergence, 0 is no effect, 100 is complete control; for Ragweed plant response rating: Postemergence, 125 g ai/ha, 0 to 100 scale (0 no effect, 100 complete control)
Description: as §1, §2

[10] = tested on: sedge, umbrella (small-flower umbrella sedge, Cyperus difformis); assay: Test B flooded paddy test, visual plant response rating; conditions: 250 g ai/ha, Flood, applied to paddy water, 2-leaf stage, evaluated after 13 to 15 days
In short: (§3)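 Compounds added straight into paddy water of pots flooded to 3 cm, with 2-leaf-stage plants of the four species; water level held throughout.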

[11] = tested on: barnyardgrass (Echinochloa crus-galli); assay: as above; conditions: 250 g ai/ha, Flood, applied to paddy water, 2-leaf stage, evaluated after 13 to 15 days
In short: as §3

[12] = tested on: ducksalad (Heteranhera limosa); assay: as above; conditions: 250 g ai/ha, Flood, applied to paddy water, 2-leaf stage, evaluated after 13 to 15 days
In short: as §3

rice (Oryza sativa) = assay: as above; conditions: 250 g ai/ha, Flood, applied to paddy water, 2-leaf stage, evaluated after 13 to 15 days
In short: as §3

[13] = tested on: foxtail, giant (giant foxtail, Setaria faberii); assay: Test A preemergence, visual plant response rating; conditions: for Foxtail, Giant plant response rating: 125 g ai/ha, preemergence, 0 to 100 scale, 0 no effect, 100 complete control; for Foxtail, Giant plant response rating (0 to 100 scale): 500 g ai/ha Preemergence, approx. 10 days
In short: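 Ratings use a 0–100 visual scale (100 = complete control) against untreated controls, scored about 10 days after greenhouse treatment. Test chemicals were formulated in surfactant-containing non-phytotoxic solvent and applied either as soil spray after planting (preemergence) or onto one- to two-leaf, 2–10 cm plants (postemergence).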

[14] = tested on: barnyardgrass (Echinochloa crus-galli); assay: Test A preemergence, visual plant response rating; conditions: for Barnyardgrass plant response rating: 125 g ai/ha, preemergence, 0 to 100 scale, 0 no effect, 100 complete control; for Barnyardgrass plant response rating (0 to 100 scale): 500 g ai/ha Preemergence, approx. 10 days
In short: (§4)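 Formulated in a non-phytotoxic solvent mixture including surfactant, each test chemical was sprayed onto the soil surface after sowing, or onto seedlings 2 to 10 cm high. Roughly 10 days later, plants were compared with untreated controls and rated for injury from 0 (no effect) to 100 (complete control).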

[15] = tested on: pigweed (Amaranthus retroflexus); assay: Test A preemergence, visual plant response rating; conditions: for Pigweed plant response rating: 125 g ai/ha, preemergence, 0 to 100 scale, 0 no effect, 100 complete control; for Pigweed plant response rating (0 to 100 scale): 500 g ai/ha Preemergence, approx. 10 days
In short: as §4

[16] = tested on: Italian ryegrass (Lolium multiflorum); assay: Test A preemergence, visual plant response rating; conditions: for Ryegrass, Italian plant response rating: 125 g ai/ha, preemergence, 0 to 100 scale, 0 no effect, 100 complete control; for Ryegrass, Italian plant response rating (0 to 100 scale): 500 g ai/ha Preemergence, approx. 10 days
In short: as §4

kochia (Kochia scoparia) [17] = assay: Test A preemergence, visual plant response rating; conditions: for Kochia plant response rating: 125 g ai/ha, preemergence, 0 to 100 scale, 0 no effect, 100 complete control; for Kochia plant response rating (0 to 100 scale): 500 g ai/ha Preemergence, approx. 10 days
In short: as §4

[18] = tested on: ragweed (common ragweed, Ambrosia elatior); assay: Test A preemergence, visual plant response rating; conditions: for Ragweed plant response rating: 125 g ai/ha, preemergence, 0 to 100 scale, 0 no effect, 100 complete control; for Ragweed plant response rating (0 to 100 scale): 500 g ai/ha Preemergence, approx. 10 days
In short: as §4

| SMILES | Foxtail, Giant plant response rating (0 to 100 scale) [1] | Foxtail, Giant plant response rating [1] | Barnyardgrass plant response rating (0 to 100 scale) [2] | Barnyardgrass plant response rating [2] | Corn plant response rating (0 to 100 scale) (corn (Zea mays)) | Corn plant response rating (corn (Zea mays)) | Wheat plant response rating (0 to 100 scale) [3] | Wheat plant response rating [3] | Pigweed plant response rating (0 to 100 scale) [4] | Pigweed plant response rating [4] | Blackgrass plant response rating (0 to 100 scale) [5] | Blackgrass plant response rating [5] | Ryegrass, Italian plant response rating (0 to 100 scale) [6] | Ryegrass, Italian plant response rating [6] | Kochia plant response rating (0 to 100 scale) (kochia (Kochia scoparia) [7]) | Kochia plant response rating (kochia (Kochia scoparia) [7]) | Galium plant response rating (0 to 100 scale) [8] | Galium plant response rating [8] | Ragweed plant response rating (0 to 100 scale) [9] | Ragweed plant response rating [9] | also measured |
| --- | --- | --- | --- | --- | --- | --- | --- | --- | --- | --- | --- | --- | --- | --- | --- | --- | --- | --- | --- | --- | --- |
| CON=C(c1ccc(F)cc1C)c1c(O)c(C)nn(C)c1=O [Compound 41] | 0 | 0 | 0 | 0 | 0 | 0 | 20 | 0 | 90 | 40 | 0 | 0 | 60 | 0 | 60 | 20 | 70 | 70 | 60 | 30 | Plant response rating, Sedge, Umbrella (0 to 100 scale, 0 is no effect, 100 is complete control) [10]: 0; Plant response rating, Barnyardgrass (0 to 100 scale, 0 is no effect, 100 is complete control) [11]: 0; Plant response rating, Ducksalad (0 to 100 scale, 0 is no effect, 100 is complete control) [12]: 0; Plant response rating, Rice (0 to 100 scale, 0 is no effect, 100 is complete control) (rice (Oryza sativa)): 0; Foxtail, Giant plant response rating [13]: 0; Foxtail, Giant plant response rating (0 to 100 scale) [13]: 0; Barnyardgrass plant response rating [14]: 0; Barnyardgrass plant response rating (0 to 100 scale) [14]: 10; Pigweed plant response rating [15]: 0; Pigweed plant response rating (0 to 100 scale) [15]: 80; Ryegrass, Italian plant response rating [16]: 0; Ryegrass, Italian plant response rating (0 to 100 scale) [16]: 20; Kochia plant response rating (kochia (Kochia scoparia) [17]): 0; Kochia plant response rating (0 to 100 scale) (kochia (Kochia scoparia) [17]): 0; Ragweed plant response rating [18]: 0; Ragweed plant response rating (0 to 100 scale) [18]: 80 |
| CON=C(c1cccc(C2CC2)c1)c1c(O)c(C)nn(C)c1=O [Compound 123] | 60 | 20 | 40 | 0 | 0 | 0 | 10 | 0 | 80 | 70 | 30 | 20 | 80 | 60 | 70 | 50 | 80 | 70 | 90 | 80 | Plant response rating, Sedge, Umbrella (0 to 100 scale, 0 is no effect, 100 is complete control) [10]: 0; Plant response rating, Barnyardgrass (0 to 100 scale, 0 is no effect, 100 is complete control) [11]: 0; Plant response rating, Ducksalad (0 to 100 scale, 0 is no effect, 100 is complete control) [12]: 0; Plant response rating, Rice (0 to 100 scale, 0 is no effect, 100 is complete control) (rice (Oryza sativa)): 0; Foxtail, Giant plant response rating [13]: 10; Foxtail, Giant plant response rating (0 to 100 scale) [13]: 40; Barnyardgrass plant response rating [14]: 0; Barnyardgrass plant response rating (0 to 100 scale) [14]: 50; Pigweed plant response rating [15]: 40; Pigweed plant response rating (0 to 100 scale) [15]: 60; Ryegrass, Italian plant response rating (0 to 100 scale) [16]: 90; Kochia plant response rating (kochia (Kochia scoparia) [17]): 10; Kochia plant response rating (0 to 100 scale) (kochia (Kochia scoparia) [17]): 50; Ragweed plant response rating [18]: 50; Ragweed plant response rating (0 to 100 scale) [18]: 80 |
| C#CCO/N=C(/c1c(O)c(C)nn(C)c1=O)c1cc(Br)cc2ccccc12 [Compound 112, 4-[(E)-(3-bromo-1-naphthalenyl)[(2-propyn-1-yloxy)imino]methyl]-5-hydroxy-2,6-dimethyl-3(2H)-pyridazinone] | 90 | 90 | 90 | 80 | 90 | 20 | 70 | 50 | 100 | 90 | 100 | 100 | 100 | 90 | 90 | 70 | 100 | 100 | 100 | 100 | Plant response rating, Sedge, Umbrella (0 to 100 scale, 0 is no effect, 100 is complete control) [10]: 60; Plant response rating, Barnyardgrass (0 to 100 scale, 0 is no effect, 100 is complete control) [11]: 55; Plant response rating, Ducksalad (0 to 100 scale, 0 is no effect, 100 is complete control) [12]: 60; Plant response rating, Rice (0 to 100 scale, 0 is no effect, 100 is complete control) (rice (Oryza sativa)): 0; Foxtail, Giant plant response rating [13]: 100; Foxtail, Giant plant response rating (0 to 100 scale) [13]: 100; Barnyardgrass plant response rating [14]: 100; Barnyardgrass plant response rating (0 to 100 scale) [14]: 100; Pigweed plant response rating [15]: 100; Pigweed plant response rating (0 to 100 scale) [15]: 100; Ryegrass, Italian plant response rating [16]: 100; Ryegrass, Italian plant response rating (0 to 100 scale) [16]: 100; Kochia plant response rating (kochia (Kochia scoparia) [17]): 50; Kochia plant response rating (0 to 100 scale) (kochia (Kochia scoparia) [17]): 80; Ragweed plant response rating [18]: 90; Ragweed plant response rating (0 to 100 scale) [18]: 90 |
